Reference: the supplement of paper PMC8882468

Columns and labels:
Test in all cases: CTG-3D luminescence at 96 h relative to day-0 seeding control (ratio to day 0); higher = more growth / less cytotoxicity; PDxO 3D drug screen, 96 h, CTG-3D normalised to day-0 seeding control.
[1] = system: HCI-017.E2 (organoid from an ER-positive breast cancer xenograft)
[2] = system: HCI-002 (organoid from a triple-negative breast cancer xenograft)
[3] = system: HCI-010 (organoid from a breast cancer xenograft)
[4] = system: HCI-025 (organoid from a breast cancer xenograft)
[5] = system: HCI-011.E2 (organoid from an ER-positive breast cancer xenograft)

CN(Cc1cnc2nc(N)nc(N)c2n1)c1ccc(C(=O)N[C@@H](CCC(=O)O)C(=O)O)cc1 [methotrexate]
CTG-3D luminescence at 96 h
Conditions	12.5 pM	0.00025 µM	0.005 µM	0.1 µM	1 µM	10 µM	100 µM	625 fM
[1]	2.07	2.19	2.14	2	2.22	2.19	2.15	2.05
[5]	1.46	1.77	1.44	1.83	1.62	2.08	2.21	1.59

CTG-3D luminescence at 96 h
Conditions	12.5 pM	0.00025 µM	0.005 µM	0.1 µM	1 µM	10 µM	100 µM	625 fM
[1], days in culture: 85	2.97	2.49	2.7	2.26	2.43	2.05	2.13	2.34
[2], days in culture: 62	2.96	2.69	2.51	2.07	1.87	1.98	1.41	3
[2], days in culture: 82	2.95	3.08	2.15	2.74	2.21	2.01	1.45	2.71
[2], days in culture: 91	3.87	3.77	3.65	2.64	2.19	2.11	1.68	4.28
[2], days in culture: 191	2.61	2.61	2.29	1.61	1.57	1.54	1.33	2.53
[2], days in culture: 209	2.46	2.21	2.31	1.84	1.59	1.28	1.33	2.57
[2], days in culture: 227	6.13	6.3	5.89	6.23	5.35	5.18	4.27	6.94
[3], days in culture: 52	2.12	2.41	2.51	2.48	2.58	2.52	2.52	2.58
[3], days in culture: 65	1.6	1.77	1.79	1.86	1.86	1.72	1.46	1.8
[3], days in culture: 103	3.42	3.7	4.03	2.39	2.36	2.1	1.84	3.19
[4], days in culture: 172	2.75	2.07	3.51	1.47	1.98	1.22	1.02	2.55
[4], days in culture: 209	1.86	1.56	2.06	0.982	1.3	0.947	0.76	1.49
[4], days in culture: 218	1.83	2	2	1.06	0.978	1.26	0.754	1.76
[5], days in culture: 74	1.97	2.4	1.99	2.27	2.49	3.6	2.24	2.17

Nc1ccn([C@@H]2O[C@H](CO)[C@@H](O)C2(F)F)c(=O)n1 [gemcitabine]
CTG-3D luminescence at 96 h
Conditions	12.5 pM	0.00025 µM	0.005 µM	0.1 µM	1 µM	10 µM	100 µM	625 fM
[1]	2.08	2.07	1.97	1.88	1.74	1.54	1.67	2.23
[5]	1.72	1.78	1.43	1.87	1.54	1.78	1.6	1.9

CTG-3D luminescence at 96 h
Conditions	12.5 pM	0.00025 µM	0.005 µM	0.1 µM	1 µM	10 µM	100 µM	625 fM
[1], days in culture: 85	2.64	2.91	2.88	1.88	1.87	1.29	1.7	2.11
[2], days in culture: 62	2.82	2.59	2.68	0.347	0.301	0.302	0.333	2.87
[2], days in culture: 82	3.16	3.03	2.46	0.461	0.431	0.271	0.234	3.23
[2], days in culture: 91	4.24	3.02	3.08	0.544	0.381	0.346	0.287	3.87
[2], days in culture: 191	2.63	2.79	2.69	0.517	0.487	0.295	0.366	2.52
[2], days in culture: 209	2.52	2.33	2.08	0.339	0.32	0.178	0.242	2.33
[2], days in culture: 227	5.51	5.33	4.57	1.05	0.78	0.657	0.547	4.99
[3], days in culture: 52	2.22	2.17	0.657	0.455	0.327	0.234	0.123	2.32
[3], days in culture: 65	1.64	1.79	0.508	0.23	0.163	0.0878	0.0546	1.68
[3], days in culture: 103	3.39	3.81	0.867	0.503	0.479	0.241	0.123	3.42
[4], days in culture: 172	3.01	1.72	2.29	0.436	0.742	0.364	0.195	2.47
[4], days in culture: 209	2.06	2.11	1.83	0.884	0.873	0.449	0.155	1.79
[4], days in culture: 218	1.86	2.09	1.77	0.5	0.362	0.365	0.143	1.79
[5], days in culture: 74	2.11	2.93	2.13	2.09	2.18	2.75	2.12	2.22

NC1(C(=O)N[C@@H](CCO)c2ccc(Cl)cc2)CCN(c2nc[nH]c3nccc2-3)CC1 [capivasertib]
CTG-3D luminescence at 96 h
Conditions	12.5 pM	0.00025 µM	0.005 µM	0.1 µM	1 µM	10 µM	100 µM	625 fM
[1]	1.91	2.1835	2.12	1.61	1.02	0.644	0.2237	2.12
[5]	1.63	1.67	1.43	1.63	1.05	0.559	0.275	1.8

CTG-3D luminescence at 96 h
Conditions	12.5 pM	0.00025 µM	0.005 µM	0.1 µM	1 µM	10 µM	100 µM	625 fM
[1], days in culture: 85	2.33	2.6	2.77	2.3	1.44	0.794	0.118	2.69
[2], days in culture: 62	2.82	2.61	2.83	2.56	2.34	2.26	0.503	2.99
[2], days in culture: 82	2.73	2.76	1.95	2.52	1.92	1.51	0.418	2.8
[2], days in culture: 91	4.24	3.84	3.7	3.73	2.94	3.16	1.6	4
[2], days in culture: 191	2.54	2.72	1.88	2.57	2.45	1.75	0.435	2.31
[2], days in culture: 209	2.44	2.32	2.31	1.92	1.96	1.45	0.402	2.39
[2], days in culture: 227	6.02	6.01	6.13	6.73	5.16	4.63	0.534	6.21
[3], days in culture: 52	2.05	2.33	2.4	2.54	2.01	1.78	0.545	2.15
[3], days in culture: 65	1.57	1.77	1.93	1.6	1.47	1.18	0.287	1.58
[3], days in culture: 103	3.5	3.47	3.91	3.21	2.35	2.11	0.959	3.23
[4], days in culture: 172	2.76	1.4	3.17	1.35	1.43	0.474	0.354	2.57
[4], days in culture: 209	1.74	1.99	1.44	0.818	0.472	0.37	0.266	1.74
[4], days in culture: 218	1.88	2.08	1.82	1.2	0.565	0.592	0.288	1.69
[5], days in culture: 74	1.84	2.07	2.01	1.54	1	0.548	0.307	2.49
